Results taken from patent EP0315782A2, “Method for the production of proteins” (priority 1987, dated 1989).
Like-named read-outs stand apart in the source and are kept apart here.

How the values were obtained:
Type in all cases: cell-based, chinesische Hamster
[1] = tested on: CHO-Zellen; test: t-PA production in transformed CHO cells, medium with 7.5% FKS, supernatant, direct chromogenic assay (DCA); conditions: for Stimulierung der t-PA-Produktion: after 24 h
Source text: (§1) Der Vektor für die t-PA-Produktion wurde in einem Subklon, CHO-K1-DUX B11, integriert (Urlaub et al., Proceedings of the National Academy of Science, USA, 77: 4216-4220, 1980). Diese Zell-Linie, eine Dihydrofolat Reduktase negative Mutante (DHFR-), ist für eine DHFR-abhängige Selektion der transfizierten Zellklone geeignet. Der Vektor für die humane c-DNA kann ein bekannter Plasmid-Vektor pBR-322 oder deren Abkömmling von Escherichia coli sein. Die Promotorregion für das in Frage kommende Gen und für das DHFR-Gen stammt aus SV 40 und die Terminationsregion für beide Gene von einem Hepatitis B-Oberflächenantigen. In den Beispielen wurden CHO-K1-DUX B11-Zellen, die durch die Plasmide pETPER oder pEPEFR transformiert sind, verwendet (siehe EP-A 0117059).
(§2) Die Zellkulturen werden bei 37°C in einem Hereaus-Brutschrank inkubiert und mit einem Kohlendioxid-Luftgemisch von 7,5% CO₂ in einer relativen Luftfeuchtigkeit von 100% belüftet. Je nach Verfahrensansatz werden unterschiedliche Kulturgefäße benutzt: Spinnergefäße für 100-1000 ml Medium, Roux-Schalen (Nunc) 175 cm² (70-100 ml Medium), 75 cm² (30-50 ml Medium), 25 cm² (7-10 ml Medium) und Mehrfachkulturschalen von Costar mit 2 cm² für 1 ml Kulturen. Für die Stammhaltung werden die Zellen in einer Dichte von 0,2-0,3 x 10⁶ Zellen/ml eingesetzt und alle 2-3 Tage subkloniert.
(§3) Die Protein-Produktion stimulierenden Substanzen können zu den verschiedenen Zeitpunkten jeweils in einer 1:100 Verdünnung zugegeben werden, d.h. sie wurden zuerst in Medium gelöst oder, wenn sie schwerlöslich sind, erst in Äthylalkohol gelöst und danach in Medium zugesetzt und dann das diese Substanz enthaltende Medium dem zellenthaltenden Medium im Verhältnis 1:100 v/v zugegeben.
(§4) In den folgenden Beispielen wurden, um die Stimulierung der t-PA-Synthese hervorzurufen, Zellen einer exponentiell wachsenden Kultur entnommen und in Plastikröhrchen (Falcon) 10 Min. bei 1000 x g in einer Beckmann T 3-6 Zentrifuge abzentrifugiert. Nach Dekantieren des Überstandes wurde das Zellpellet mit frischem Medium resuspendiert.
Für die Produktion von t-PA in serumhaltigem Medium wurde als frisches Medium F12/DMEM + 7,5% FKS + Gentamycin verwendet. Die resultierende Suspension kann in 2 cm² 24 Wells-Platten bei einer Zelldichte von 0,2-0,3 x 10⁶ Zellen/ml angesetzt werden.
(§5) Aliquots von Zellüberständen und Zellextrakten wurden zu verschiedenen Zeitpunkten abgenommen bzw. hergestellt. Die Messung der Proben erfolgte entweder sofort oder nach Aufbewahrung bei -20°C mit folgenden Methoden:
Von dem synthetischen Peptidsubstrat S-2288 (D-H-Ile-Pro-Arg-p-Nitroanilin) der Firma Kabi Diagnostica wird durch das t-PA p-Nitroanilin als Reaktionsprodukt gebildet. Die Aktivität von t-PA ist zur Bildung von p-Nitroanilin proportional, die bei […], 37°C, gemessen wird.
Die spektrophotometrische Bestimmung der Enzymkinetik wurde mit einem ACP-5010-Analysengerät der Firma Eppendorf automatisch durchgeführt.
Die Aktivität des Enzyms wurde anhand dieses vorgegebenen Standards berechnet. Eine t-PA-Standardreihe von 1-15 µg/ml wurde mit einem Laborstandard hergestellt, der zu 72% aus 1-kettigem Material besteht.
Die Substratlösung (100 mM Tris/106 mM NaCl) wurde in einer Konzentration von 50 mM eingesetzt.

[2] = tested on: CHO-Zellen; test: t-PA production in transformed CHO cells, medium and determination method not stated; conditions: 10 mM; for activation at 10000 µM: CHO
Source text: as §1, §2, §3, §4
Aliquots von Zellüberständen und Zellextrakten wurden zu verschiedenen Zeitpunkten abgenommen bzw. hergestellt. Die Messung der Proben erfolgte entweder sofort oder nach Aufbewahrung bei -20°C mit folgenden Methoden: […]

[3] = tested on: CHO-Zellen; test: t-PA production in transformed CHO cells, serum-free medium (DCA or determination method not given)
Source text: Diese Zell-Linie, eine Dihydrofolat Reduktase negative Mutante (DHFR-), ist für eine DHFR-abhängige Selektion der transfizierten Zellklone geeignet. […] Die Promotorregion für das in Frage kommende Gen und für das DHFR-Gen stammt aus SV 40 und die Terminationsregion für beide Gene von einem Hepatitis B-Oberflächenantigen.
Im folgenden Beispiel wird ein nachseziertes DMEM/Ham's F 12 Medium (1:1) (Gibco) als serumfreies Medium verwendet. Als Zusatz wird fötales Kälberserum (FKS) in einer Konzentration von 7,5% oder 1-2% verwendet.
as §2, §3, §4
Für die Produktion von t-PA in serumfreiem Medium wurden die Zellen zuvor 3-4 Tage in einem Medium von 1-2% FKS adaptiert, wieder abzentrifugiert und das Zellpellet in serumfreiem Medium resuspendiert und anschließend in 2 cm² 24 Wells-Platten in einer Zelldichte von 0,4-0,5 x 10⁶ Zellen/ml überführt.
as §5
Die Aktivität des Enzyms wurde anhand dieses vorgegebenen Standards berechnet.

[4] = Table 3, mean ± SE, n = 3-24, production runs of 3 to 4 days, acids added day 0 to 3, 1 ml supernatant vs control (0%), 7,5% FKS
[5] = Table 3, single sample, 1 ml supernatant vs control (0%), 7,5% FKS, its concentration, addition and sampling day in brackets in Tables 3/3A
[6] = Table 10, 7,5% FKS, bracketed value = concentration of the single sample
[7] = Table 10, mean ± SE, runs of 4 days, added day 1, sampled days 2-4, 7,5% FKS, 1 ml supernatant vs control (0%)
[8] = Table 10, single sample (added day 1, sampled day 4), 7,5% FKS, 1 ml supernatant vs control (0%)
[9] = Table 3, stimulation of t-PA synthesis, medium with 7,5% FKS, bracketed value = concentration of the single (maximum) sample
[10] = Table 4, Applikationstag 0, after 48 h growth, 7,5% FKS, 1 mM or 5 mM, 1 ml supernatant vs control (0%), mean ± SE
[11] = Table 4, Applikationstag 1, after 48 h growth, 7,5% FKS, 1 mM or 5 mM, 1 ml supernatant vs control (0%), mean ± SE
[12] = Table 7, mean ± SE, n = 4-9, runs of 4 days, acids added day 0, 7,5% FKS, 1 ml supernatant vs control (0%)
[13] = Table 7, single sample (added day 0, sampled day 2), 7,5% FKS, 1 ml supernatant vs control (0%)
[14] = Table 8, 7,5% FKS, bracketed value = concentration of the single sample
[15] = Table 8, mean ± SE, n = 6-19, runs of 3 days, added day 0 to 2, 7,5% FKS, 1 ml supernatant vs control (0%)
[16] = Table 8, single sample, 7,5% FKS, 1 ml supernatant vs control (0%)

O=CO [Ameisensäure, reference compound]
% Steigerung der t-PA-Synthese Durchschnitt [1, 4]: 6,5 ± 0,9% | % Steigerung der t-PA-Synthese Maximum [1, 5]: 7,4% | optimaler Dosisbereich ([1]; Table 3, stimulation of t-PA synthesis, medium with 7,5% FKS): 100 µM

O=C1O[C@H]([C@@H](O)CO)C(O)=C1O [Ascorbinsäure]
Wirkung auf die t-PA-Produktion hält an ([2]; duration of effect): 72 h | activation at 10000 µM ([2]; application day 0, after 24 h (Abb. 14), read-out: Steigerung der t-PA-Synthese): 15.2%

CCCC(=O)OCC[N+](C)(C)C.[Br-] [BCB, Butyrylcholinbromid]
optimaler Dosisbereich [1, 6]: 5-10 mM (2.5 mM) | % Steigerung der t-PA-Synthese Durchschnitt [1, 7]: 29,1 ± 4,4% | % Steigerung der t-PA-Synthese Maximum [1, 8]: 49,6%

CCCC(=O)OCC[N+](C)(C)C.[Cl-] [BCC, Butyrylcholinchlorid]
optimaler Dosisbereich [1, 6]: 5-10 mM ( 10 mM) | % Steigerung der t-PA-Synthese Durchschnitt [1, 7]: 38,8 ± 4,4% | % Steigerung der t-PA-Synthese Maximum [1, 8]: 63,9%

CCCC(=O)O [Buttersäure]
t-PA-Synthese, bezogen auf 1 x 10⁶ Zellen ([3]; serum-free medium (Abb. 13)): > 50 µg/ 1 x 10⁶ Zellen | % Steigerung der t-PA-Synthese Durchschnitt [1, 4]: 41,9 ± 3,8% | % Steigerung der t-PA-Synthese Maximum [1, 5]: 68,3% | optimaler Dosisbereich [1, 9]: 1-5 mM ( 1 mM) | Steigerung der t-PA-Produktion [1, 10]: 33,0 ± 5,4% | Steigerung der t-PA-Produktion [1, 11]: 40,2 ± 12,2% | Stimulierung der t-PA-Produktion ([1]; medium with 7,5% FKS (Abb. 7)): 18,1 ± 5,7%

CC(=O)C=C(C)CC(C)(C)O [DHO, 6-Hydroxy-4,6-Dimethyl-3-hepten-2-on]
t-PA Produktion nach der Behandlung ([3]; after 144 h): erhöht

CCCCCc1oc(CCCCCCCCC(=O)O)c(C)c1C [Furanfettsäure]
% Steigerung der t-Pa-Synthese Durchschnitt [1, 12]: 19,0 ± 3,2% | % Steigerung der t-Pa-Synthese Maximum [1, 13]: 32,1%

N[C@@H](CCC(=O)N[C@@H](CS)C(=O)NCC(=O)O)C(=O)O [Glutathion]
optimaler Dosisbereich [1, 14]: 1-10 µM (10µM) | % Steigerung der t-Pa-Synthese Durchschnitt [1, 15]: 16,0 ± 2,0% | % Steigerung der t-Pa-Synthese Maximum [1, 16]: 30,6% | effektiver Konzentrationsbereich ([1]; text b134): 1 to 10 µM

CC(C)C(=O)O [Isobuttersäure]
% Steigerung der t-PA-Synthese Durchschnitt [1, 4]: 16.6 ± 2,8% | % Steigerung der t-PA-Synthese Maximum [1, 5]: 32,9% | optimaler Dosisbereich [1, 9]: 0,6-10 mM (10 mM) | Steigerung der t-PA-Produktion [1, 10]: 20,1 ± 10,7% | Steigerung der t-PA-Produktion [1, 11]: 25,3 ± 5,1% | Produktionssteigerung erst nach ([1]; onset of the increase, medium with 7,5% FKS (Abb. 7)): 48 h

CC(C)CC(=O)O [Isovaleriansäure]
% Steigerung der t-PA-Synthese Durchschnitt [1, 4]: 18,7 ± 2,4% | % Steigerung der t-PA-Synthese Maximum [1, 5]: 39,3% | optimaler Dosisbereich [1, 9]: 1-20 mM ( 5 mM) | Steigerung der t-PA-Produktion [1, 10]: 17,2 ± 1,0% | Steigerung der t-PA-Produktion [1, 11]: 19,4 ± 1,5% | Stimulierung der t-PA-Produktion ([1]; medium with 7,5% FKS (Abb. 7)): 24,8 ± 0,5% | Steigerung der t-PA-Produktion ([1]; day 4, medium with 7,5% FKS (Abb. 7)): 8,5%

N[C@@H](CS)C(=O)O [L-Cystein]
optimaler Dosisbereich [1, 14]: 1-10 mM ( 1mM) | % Steigerung der t-Pa-Synthese Durchschnitt [1, 15]: 20,9 ± 3,4% | % Steigerung der t-Pa-Synthese Maximum [1, 16]: 41,4% | Maximalwert des Steigerungseffektes erreicht nach ([1]; time to maximal effect (Abb. 15)): 48 h

CC(O)CC1CCC(C(C)C(=O)O)O1 (stereo not drawn) [Nonactinsäure]
% Steigerung der t-Pa-Synthese Durchschnitt [1, 12]: 30,3 ± 6,5% | % Steigerung der t-Pa-Synthese Maximum [1, 13]: 58,3%

O=C(O)CSCC(=O)O [Thiodiglykolsäure]
% Steigerung der t-Pa-Synthese Durchschnitt [1]: 18,0 ± 3,8% | % Steigerung der t-Pa-Synthese Maximum [1]: 31,0% | optimaler Dosisbereich [1]: 1000 µM

O=C(O)C(O)C(O)C(=O)O (stereo not drawn) [Weinsäure]
activation at 10000 µM ([2]; read-out: Steigerung der t-PA-Synthese gegenüber der Kontrolle): 10.3%
